Assay [1] addresses T1, APJ (Homo sapiens, UniProt P35414).
T1 sequence (P35414 1-380): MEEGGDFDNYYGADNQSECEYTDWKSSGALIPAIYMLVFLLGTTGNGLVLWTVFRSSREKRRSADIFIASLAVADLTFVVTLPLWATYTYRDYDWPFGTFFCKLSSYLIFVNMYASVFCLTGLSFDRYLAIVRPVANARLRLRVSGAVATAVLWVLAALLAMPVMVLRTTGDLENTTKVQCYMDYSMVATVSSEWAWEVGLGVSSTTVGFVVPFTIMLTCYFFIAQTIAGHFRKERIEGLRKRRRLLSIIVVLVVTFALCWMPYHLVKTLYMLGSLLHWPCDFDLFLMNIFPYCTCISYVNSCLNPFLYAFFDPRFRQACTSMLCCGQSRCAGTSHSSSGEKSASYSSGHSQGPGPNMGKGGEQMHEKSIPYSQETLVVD
Kind of assay: APJ DiscoveRx PathHunter β-arrestin assay (antagonism of apelin-13). Type of assay: cell-based. On the set-up: host or cells: Angiotensin II receptor-like 1 (AGTRL-1) Cell Line (PathHunter). To be noted: for IC50: β-arrestin assay, n = 4 unless noted in parentheses, read-out: APJ Potency IC50 (μM) Ave. ± S.E.M. The protocol:
The assay was incubated for 90 mins at room temperature, and then developed with 3 μL of detection reagent (PathHunter Detection Reagents (DiscoveRx, Cat#93-0001)) for 60 mins and luminescence read on a Perkin Elmer ViewLux.
(§1) All assays in Table 2, with the exception of the […] counterscreen, utilize the DiscoveRx PathHunter® β-arrestin assay technology. Unlike imaging or other second messenger assays, the DiscoveRx β-arrestin assay allows for a direct measure of GPCR activation by detection of β-arrestin binding to the APJ, and in the case of the counterscreen, the AT1 receptor. […] In cells that stably express these fusion proteins, ligand stimulation results in the interaction of β-arrestin and the ProLink-tagged GPCR, forcing the complementation of the two β-galactosidase fragments and resulting in the formation of a functional enzyme that converts substrate to detectable luminescent signal.
Assay was incubated for 90 mins at room temperature, and then developed with 3 μL of detection reagent for 60 mins and luminescence read on a Perkin Elmer ViewLux. Initial actives were retested in duplicate at the 20 μM test concentration, and reconfirmed hits retested in full dose-response for compounds from resupplied MLSMR DMSO stock solutions.

The target of assay [2] is T2, Angiotensin receptor 1 (AT1) (Homo sapiens, UniProt P30556).
T2 construct: host or cells: Angiotensin receptor 1 (AT1) Cell Line (PathHunter)
T2 sequence (P30556 1-359): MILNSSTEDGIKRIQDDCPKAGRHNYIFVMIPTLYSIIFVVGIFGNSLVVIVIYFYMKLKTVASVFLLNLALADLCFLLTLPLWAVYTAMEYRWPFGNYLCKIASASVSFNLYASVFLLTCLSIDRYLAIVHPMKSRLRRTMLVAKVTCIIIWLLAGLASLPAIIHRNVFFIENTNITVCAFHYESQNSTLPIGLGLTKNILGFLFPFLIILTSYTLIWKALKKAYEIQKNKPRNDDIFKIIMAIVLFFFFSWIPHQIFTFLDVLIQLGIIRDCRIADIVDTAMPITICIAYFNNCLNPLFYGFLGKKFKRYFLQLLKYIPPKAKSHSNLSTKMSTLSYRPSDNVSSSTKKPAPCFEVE
Kind of assay: AT1 DiscoveRx PathHunter β-arrestin counterscreen (antagonism of angiotensin II). In kind it is cell-based. As to conditions: β-arrestin assay, n = 4 unless noted in parentheses; read-out: AT1 Potency IC50 (μM) Ave. ± S.E.M.
Excerpt: as §1
Next, varying volumes of stock test compounds in DMSO were transferred to each well to achieve appropriate dose response concentrations and range. DMSO was backfilled into each test compound well to a total volume of 80 nL to achieve equal concentration of DMSO in all wells. This was followed by an addition of 1 μL of 300 nM reference agonist, Angiotensin II, to the negative and test compound wells, and 1 μL of assay media to positive control wells. The assay was incubated for 90 mins at room temperature, and then developed with 3 μL of detection reagent for 60 mins and luminescence read on a Perkin Elmer ViewLux.
A general note: A counterscreen serves to expose hits that act by an unwanted route or on another target.

The results in this text go back to patent US20140005181A1, “SMALL MOLECULE ANTAGONISTS OF THE APELIN RECEPTOR FOR THE TREATMENT OF DISEASE” (Sanford-Burnham Medical Research Institute, priority 2012, published 2014).

“And” between values parts separate entries of the source, which are not always exact repeats. Equal entries are not always repeated.

Take `O=C(Oc1coc(CSc2ncccn2)cc1=O)c1ccc(Cl)c([N+](=O)[O-])c1` [Compound 2]: in assay [1], the “SI = Selectivity Index: (IC50 AT1)/(IC50 APJ)” value (from here on “SI = Selectivity Index”) is listed as over 13 and the IC50 (usually the concentration at which inhibition is half-maximal) worked out at 6.2 ± 0.77 µM. As for `Cc1ccc(C(=O)Oc2coc(CSc3ncccn3)cc2=O)cc1[N+](=O)[O-]` [Compound 3], in assay [1], the “SI = Selectivity Index” value is >11 and >7.2; the IC50 was 7.25 µM and 10.9 µM. As for `O=C(Oc1coc(CSc2ncccn2)cc1=O)c1cccc([N+](=O)[O-])c1` [Compound 4], the IC50 in assay [1] came out at 75.7 µM. The same measure, in the same setting: in the case of `O=C(Oc1coc(CSc2ncccn2)cc1=O)c1ccc(Cl)cc1` [Compound 5] it was 54.5 µM. Turning to `N#Cc1ccc(C(=O)Oc2coc(CSc3ncccn3)cc2=O)cc1` [Compound 7], the IC50 in assay [2] was over 79 µM; in assay [1], 6.59 µM and 9.77 µM. Moreover, the “SI = Selectivity Index” value in assay [1] is >12 and >8. For the compound `O=C(Oc1coc(CSc2ncccn2)cc1=O)c1ccc(C(F)(F)F)cc1` [Compound 8], the IC50 in assay [1] was found to be 29 µM.

Take `O=C(Oc1coc(CSc2ncccn2)cc1=O)c1ccc(Br)cc1` [Compound 9]: the IC50 in assay [1] came to 18.2 µM. On to `O=C(Oc1coc(CSc2ncccn2)cc1=O)c1cc([N+](=O)[O-])ccc1Cl` [Compound 21], for which the IC50 in assay [2] turned out to be 60.1 ± 1.35 µM; in assay [1], 51 µM. For `Cc1c(C(=O)Oc2coc(CSc3ncccn3)cc2=O)cccc1[N+](=O)[O-]` [Compound 22], in assay [1], the IC50 turned out to be 72.2 µM.

`Cc1ccnc(SCc2cc(=O)c(OC(=O)c3ccc(C)c([N+](=O)[O-])c3)co2)n1` [Compound 30]: in assay [1], the “SI = Selectivity Index” value was over 17 and the IC50 was 4.7 µM.

Regarding `Cc1ccnc(SCc2cc(=O)c(OC(=O)c3cccc([N+](=O)[O-])c3)co2)n1` [Compound 31], the IC50 in assay [1] was 59.2 µM. Take `Cc1ccnc(SCc2cc(=O)c(OC(=O)c3ccc([N+](=O)[O-])cc3)co2)n1` [Compound 33]: in assay [1], the “SI = Selectivity Index” value is >25 and >23; the IC50 is 3.11 µM and 4.32 µM. With `Cc1ccnc(SCc2cc(=O)c(OC(=O)c3ccc(C#N)cc3)co2)n1` [Compound 34], in assay [1], the “SI = Selectivity Index” value was >9 and >7; the IC50 was 8.51 µM and 11.5 µM. With `Cc1ccnc(SCc2cc(=O)c(OC(=O)c3ccc(C(F)(F)F)cc3)co2)n1` [Compound 35], the IC50 in assay [1] stood at 20.6 µM. Consider `Cc1ccnc(SCc2cc(=O)c(OC(=O)c3ccc(S(=O)(=O)N4CCCC4)cc3)co2)n1` [Compound 39], for which the IC50 in assay [1] turned out to be 39.9 ± 8.65 µM. On the same count and under the same terms, under `Cc1ccnc(SCc2cc(=O)c(OC(=O)c3cc(Cl)ccc3[N+](=O)[O-])co2)n1` [Compound 40] stands 58.8 µM. On the same count and under the same terms, in the case of `Cc1ccnc(SCc2cc(=O)c(OC(=O)c3cc([N+](=O)[O-])ccc3Cl)co2)n1` [Compound 41] it was 74.1 µM.

For the compound `Cc1ccnc(SCc2cc(=O)c(OC(=O)c3ccccc3Cl)co2)n1` [Compound 42], the IC50 in assay [2] is over 79 µM. `Cc1cccc(C(=O)Oc2coc(CSc3nccc(C)n3)cc2=O)c1` [Compound 44]: the concentration for half-maximal inhibition (IC50) in assay [2] and in assay [1] was over 79 µM each time. In the case of `Cc1ccnc(SCc2cc(=O)c(OC(=O)c3ccccc3C)co2)n1` [Compound 46], the IC50 in assay [2] and in assay [1] was over 79 µM each time. Regarding `Cc1cc(C)nc(SCc2cc(=O)c(OC(=O)c3ccc(Cl)c([N+](=O)[O-])c3)co2)n1` [Compound 49], the IC50 in assay [2] is over 79 µM. Moreover, in assay [1], the “SI = Selectivity Index” value is on record as over 15 and the IC50 stood at 5.45 ± 1.47 µM. Taken in the same sequence, the figures for `Cc1cc(C)nc(SCc2cc(=O)c(OC(=O)c3ccc(C)c([N+](=O)[O-])c3)co2)n1` [Compound 50] were over 79 µM, over 3 and 25.3 ± 5.8 µM. For `Cc1cc(C)nc(SCc2cc(=O)c(OC(=O)c3ccc(S(=O)(=O)N(C)C)cc3)co2)n1` [Compound 51], the IC50 in assay [2] and in assay [1] was over 79 µM each time.

For `Cc1cc(C)nc(SCc2cc(=O)c(OC(=O)c3cc(Cl)ccc3[N+](=O)[O-])co2)n1` [Compound 52], the concentration for half-maximal inhibition (IC50) in assay [2] is 49.7 ± 6.74 µM; in assay [1] it was over 79 µM. For `Cc1cc(C)nc(SCc2cc(=O)c(OC(=O)c3cc([N+](=O)[O-])ccc3Cl)co2)n1` [Compound 53] the same measures were 49.7 ± 6.74 µM and 44.5 µM. Taken in the same sequence, the figures for `Cc1cc(C)nc(SCc2cc(=O)c(OC(=O)c3cccc([N+](=O)[O-])c3C)co2)n1` [Compound 54] were over 79 µM and over 79 µM. Taken in the same sequence, the figures for `Cc1cc(C)nc(SCc2cc(=O)c(OC(=O)c3ccc(-c4nccs4)cc3)co2)n1` [Compound 55] were over 79 µM and over 79 µM. `O=c1cc(CSc2ccccc2)occ1O` [Compound 56]: the IC50 in assay [2] and in assay [1] was over 79 µM each time.

For `O=c1cc(CSc2ccc(F)cc2)occ1O` [Compound 57], the IC50 in assay [2] and in assay [1] was over 79 µM throughout.

As for `O=c1cc(CSc2ncccn2)occ1O` [Compound 58], the IC50 in assay [2] and in assay [1] was over 79 µM throughout.

With `O=C(Oc1coc(CSc2ccc(Cl)cc2)cc1=O)c1ccc(Cl)c([N+](=O)[O-])c1` [Compound 63], the IC50 in assay [2] is over 79 µM. Also, in assay [1], the “SI = Selectivity Index” value was over 17 and the IC50 is 4.53 ± 0.66 µM. With `Cc1ccnc(SCc2cc(=O)c(OCc3ccccc3)co2)n1` [Compound 66], the IC50 in assay [2] and in assay [1] was over 79 µM throughout. Regarding `Cc1ccnc(SCc2cc(=O)c(OCc3ccc(Cl)c([N+](=O)[O-])c3)co2)n1` [Compound 67], the IC50 in assay [2] and in assay [1] was over 79 µM throughout. With `Cc1ccnc(SCc2cc(=O)c(OC(=O)C(C)(C)C)co2)n1` [Compound 68], the IC50 in assay [2] and in assay [1] was over 79 µM in each case.

Take `Cc1cc(C)nc(SCc2cc(=O)c(OS(=O)(=O)c3ccccc3)co2)n1` [Compound 71]: the 50% inhibitory concentration (IC50) in assay [2] and in assay [1] was over 79 µM throughout.

On to `Cc1cc(C)nc(SCc2cc(=O)c(OS(=O)(=O)c3ccc([N+](=O)[O-])cc3)co2)n1` [Compound 72], for which the IC50 in assay [2] and in assay [1] was over 79 µM in each case. `Cc1ccnc(SCc2cc(=O)c(NC(=O)c3ccccc3)co2)n1` [Compound 73]: the IC50 in assay [2] and in assay [1] was over 79 µM throughout. Regarding `Cc1ccnc(SCc2cc(=O)c(NC(=O)c3ccc([N+](=O)[O-])cc3)co2)n1` [Compound 74], the IC50 in assay [2] and in assay [1] was over 79 µM each time. Take `Cc1ccnc(SCc2cc(=O)c(OC(=O)c3ccco3)co2)n1` [Compound 75]: the IC50 in assay [2] and in assay [1] was over 79 µM each time.

In the case of `Cc1ccnc(SCc2cc(=O)c(OC(=O)c3ccsc3)co2)n1` [Compound 76], the IC50 in assay [2] and in assay [1] was over 79 µM in each case.

`Cc1ccnc(SCc2cc(=O)c(OC(=O)c3ccc([N+](=O)[O-])o3)co2)n1` [Compound 77]: the IC50 in assay [2] and in assay [1] was over 79 µM each time.

On to `Cc1ccnc(SCc2cc(=O)c(OC(=O)c3cnco3)co2)n1` [Compound 78], for which the IC50 in assay [2] and in assay [1] was over 79 µM in each case.
